Patent US7138361B2, “Herbicidal heterocycles” (E. I. du Pont de Nemours and Company, priority 2000, dated 2006)

Key:
Format in all cases: in vivo
[1] = tested on: duck salad (Heteranthera limosa); assay: Test C flooded paddy test; conditions: for Ducksalad plant response rating: Flooded Paddy, scale 0 to 100, 0 no effect, 100 complete control; for Plant response rating, Ducksalad: flooded paddy test, scale 0 to 100 (0 no effect, 100 complete control)
Summary of the method: (§1)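 Flooded paddy, 2-leaf stage at treatment. Readout: visual % control vs untreated, 0–100, at 12–14 d in greenhouse.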

[2] = tested on: smallflower flatsedge (Cyperus difformis); assay: Test C flooded paddy test; conditions: for Flatsedge plant response rating: Flooded Paddy, scale 0 to 100, 0 no effect, 100 complete control; for Plant response rating, Flatsedge: flooded paddy test, scale 0 to 100 (0 no effect, 100 complete control)
Summary of the method: as §1

[3] = tested on: barnyardgrass (Echinochloa crus-galli); assay: Test C flooded paddy test; conditions: for Barnyardgrass plant response rating: Flooded Paddy, scale 0 to 100, 0 no effect, 100 complete control; for Plant response rating, Barnyardgrass: flooded paddy test, scale 0 to 100 (0 no effect, 100 complete control)
Summary of the method: as §1

[4] = tested on: corn (Zea mays); assay: Test C preemergence
Text: (§2) Seeds of plant species selected from bermudagrass (Cynodon dactylon), Surinam grass (Brachiaria decumbens), cocklebur (Xanthium strumarium), corn (Zea mays), crabgrass (Digitaria sanguinalis), woolly cupgrass (Eriochloa villosa), giant foxtail (Setaria faberii), goosegrass (Eleusine indica), johnsongrass (Sorghum halepense), kochia (Kochia scoparia), lambsquarters (Chenopodium album), morningglory (Ipomoea hederacea), yellow nutsedge (Cyperus esculentus), pigweed (Amaranthus retroflexus), common ragweed (Ambrosia elatior), soybean (Glycine max) and velvetleaf (Abutilon theophrasti) were planted and treated preemergence with test chemicals formulated in a non-phytotoxic solvent mixture which included a surfactant.
(§3) At the same time, plants selected from these crop and weed species and also winter barley (Hordeum vulgare), blackgrass (Alopecurus myosuroides), canary grass (Phalaris minor), chickweed (Stellaria media), downy brome (Bromus tectorum), green foxtail (Setaria viridis), Italian ryegrass (Lolium multiflorum), wheat (Triticum aestivum), wild oat (Avena fatua) and windgrass (Apera spica-venti) were treated with postemergence applications of some of the test chemicals formulated in the same manner. Plants ranged in height from 2 to 18 cm (1- to 4-leaf stage) for postemergence treatments. Plant species in the flooded paddy test consisted of rice (Oryza saliva), smallflower flatsedge (Cyperus difformis), duck salad (Heteranthera limosa) and barnyardgrass (Echinochloa crus-galli) grown to the 2-leaf stage for testing. Treated plants and controls were maintained in a greenhouse for 12 to 14 days, after which time all species were compared to controls and visually evaluated. Plant response ratings, summarized in Table C, are based on a scale of 0 to 100 where 0 is no effect and 100 is complete control. A dash (-) response means no test result.

[5] = tested on: goosegrass (Eleusine indica); assay: Test C preemergence
Text: as §2, §3

[6] = tested on: crabgrass (Digitaria sanguinalis); assay: Test C preemergence
Text: as §2, §3

[7] = tested on: velvetleaf (Abutilon theophrasti); assay: Test C preemergence
Text: as §2, §3

[8] = tested on: Nightshade; assay: Test C preemergence
Text: as §2, §3

[9] = tested on: giant foxtail (Setaria faberii); assay: Test C preemergence
Text: as §2, §3

[10] = tested on: common ragweed (Ambrosia elatior); assay: Test C preemergence
Text: as §2, §3

[11] = tested on: johnsongrass (Sorghum halepense); assay: Test C preemergence
Text: as §2, §3

[12] = tested on: bermudagrass (Cynodon dactylon); assay: Test C preemergence
Text: as §2, §3

[13] = tested on: Surinam grass (Brachiaria decumbens); assay: Test C preemergence
Text: as §2, §3

[14] = tested on: woolly cupgrass (Eriochloa villosa); assay: Test C preemergence
Text: as §2, §3

[15] = tested on: Sunflower; assay: Test C preemergence
Text: as §2, §3

[16] = tested on: lambsquarters (Chenopodium album); assay: Test C preemergence
Text: as §2, §3

[17] = tested on: cocklebur (Xanthium strumarium); assay: Test C preemergence
Text: as §2, §3

[18] = tested on: morningglory (Ipomoea hederacea); assay: Test C preemergence
Text: as §2, §3

[19] = tested on: pigweed (Amaranthus retroflexus); assay: Test C preemergence
Text: as §2, §3

[20] = tested on: yellow nutsedge (Cyperus esculentus); assay: Test C preemergence
Text: as §2, §3

[21] = tested on: soybean (Glycine max); assay: Test C preemergence
Text: as §2, §3

[22] = Preemergence, Rate 500 g/ha, scale 0 to 100
[23] = Rate 62 g/ha, scale 0 to 100, 0 no effect, 100 complete control
[24] = preemergence, Rate 250 g/ha, visual evaluation after 12 to 14 days
[25] = preemergence, Rate 125 g/ha, scale 0 to 100, 0 no effect, 100 complete control

CC(C)c1ccn(C2SCN(c3cccc(OC(F)(F)F)c3)C2=O)n1 (stereo not drawn) [Compound 31]
30: Plant response rating, Velvetleaf [7, 22] | Plant response rating (0 to 100), Velvetleaf [7, 24] | Plant response rating, Ragweed, Common [10, 23] | Plant response rating, Johnsongrass [11, 23] | Plant response rating, Cocklebur [17, 22] | Plant response rating (0 to 100), Cocklebur [17, 24] | Plant response rating, Morningglory [18, 23] | Plant response rating, Morningglory [18, 25] | Plant response rating, Pigweed [19, 23]
100: Ducksalad plant response rating ([1]; Rate 250 g/ha) | Ducksalad plant response rating ([1]; Rate 500 g/ha) | Flatsedge plant response rating ([2]; Rate 250 g/ha) | Flatsedge plant response rating ([2]; Rate 500 g/ha) | Plant response rating, Flatsedge ([2]; Rate 62 g/ha) | Plant response rating, Flatsedge ([2]; Rate 125 g/ha) | Barnyardgrass plant response rating ([3]; Rate 500 g/ha) | Plant response rating, Goosegrass [5, 22] | Plant response rating, Goosegrass [5, 23] | Plant response rating (0 to 100), Goosegrass [5, 24] | Plant response rating, Goosegrass [5, 25] | Plant response rating, Crabgrass [6, 22] | Plant response rating, Crabgrass [6, 23] | Plant response rating (0 to 100), Crabgrass [6, 24] | Plant response rating, Crabgrass [6, 25] | Plant response rating, Nightshade ([8]; Rate 500 g/ha, scale 0 to 100) | Plant response rating, Foxtail, Giant [9, 22] | Plant response rating, Ragweed, Common [10, 22] | Plant response rating, Johnsongrass [11, 22] | Plant response rating, Bermudagrass [12, 22] | Plant response rating (0 to 100 where 0 is no effect and 100 is complete control), Bermudagrass [12, 24] | Plant response rating, Bermudagrass [12, 25] | Plant response rating, Cupgrass, Woolly [14, 22] | Plant response rating, Lambsquarters [16, 22] | Plant response rating, Lambsquarters [16, 23] | Plant response rating (0 to 100), Lambsquarters [16, 24] | Plant response rating, Lambsquarters [16, 25] | Plant response rating, Pigweed [19, 25]
20: Plant response rating, Sunflower [15, 23]
50: Plant response rating, Foxtail, Giant [9, 25] | Plant response rating, Surinam grass [13, 23] | Plant response rating, Surinam grass [13, 25] | Plant response rating, Cupgrass, Woolly [14, 23] | Plant response rating, Morningglory [18, 22] | Plant response rating, Nutsedge [20, 25]
70: Plant response rating, Ducksalad ([1]; Rate 62 g/ha) | Plant response rating, Surinam grass [13, 22] | Plant response rating (0 to 100), Nutsedge [20, 24]
60: Plant response rating, Corn [4, 22] | Plant response rating (0 to 100), Foxtail, Giant [9, 24] | Plant response rating, Johnsongrass [11, 25] | Plant response rating (0 to 100), Surinam grass [13, 24] | Plant response rating, Cupgrass, Woolly [14, 25]
90: Plant response rating, Ducksalad ([1]; Rate 125 g/ha) | Barnyardgrass plant response rating ([3]; Rate 250 g/ha) | Plant response rating, Nightshade ([8]; Rate 125 g/ha, scale 0 to 100, 0 no effect, 100 complete control) | Plant response rating (0 to 100), Ragweed, Common [10, 24] | Plant response rating, Ragweed, Common [10, 25] | Plant response rating (0 to 100), Johnsongrass [11, 24] | Plant response rating, Bermudagrass [12, 23] | Plant response rating (0 to 100), Cupgrass, Woolly [14, 24] | Plant response rating, Pigweed [19, 22] | Plant response rating, Nutsedge [20, 22]
40: Plant response rating, Corn [4, 23] | Plant response rating (0 to 100), Corn [4, 24] | Plant response rating, Corn [4, 25] | Plant response rating, Foxtail, Giant [9, 23] | Plant response rating, Sunflower ([15]; Rate 500 g/ha, scale 0 to 100) | Plant response rating (0 to 100), Morningglory [18, 24] | Plant response rating, Nutsedge [20, 23]
0: Plant response rating, Velvetleaf [7, 23] | Plant response rating, Velvetleaf [7, 25] | Plant response rating, Cocklebur [17, 23] | Plant response rating, Cocklebur [17, 25] | Plant response rating, Soybean [21, 22] | Plant response rating, Soybean [21, 23] | Plant response rating (0 to 100), Soybean [21, 24] | Plant response rating, Soybean [21, 25]
80: Plant response rating, Barnyardgrass ([3]; Rate 62 g/ha) | Plant response rating, Barnyardgrass ([3]; Rate 125 g/ha) | Plant response rating, Nightshade [8, 23] | Plant response rating (0 to 100), Pigweed [19, 24]
